Data published in patent US8212016B2, “NPC1L1 orthologues” (Schering Corporation, priority 2006, dated 2012).
Like-named read-outs stand apart in the source and are kept apart here.

How the values were obtained:
[1] = target: T1, mouse NPC1L1 (Mus musculus, UniProt Q6T3U4, N476K); assay: Fluorescence NPC1L1 binding assay, HEK-293 cells, fluorescent compound 2 as ligand; conditions: for Kd: saturation binding, mouse NPC1L1; for Ki / Ki Mouse NPC1L1: Table 3, Mouse; for Ki: read-out: Ki Mouse NPC1L1
T1 construct: expressed in transfected cells
Description: (§1) Cell Culture and Membrane Preparation. Each plasmid pCR3.1 harboring NPC1L1 was prepared using standard molecular biology protocols. Stable cell lines expressing human, rhesus monkey, mouse, rat, hamster, canine or rabbit NPC1L1 were generated using Lipofectamine 2000 transfection reagent in HEK-293 cells according to the manufacturer's protocol. Cells were maintained in DMEM supplemented with 10% FBS, 100 U/ml pen/strep, and 500 μg/ml geneticin at 37° C., 5% CO2. All cell culture reagents were obtained from Invitrogen Life Technologies, (Carlsbad, Calif.). Cell membranes were prepared by lysing cells in 5 mM HEPES with protease inhibitors (Complete™ Protease Inhibitor Cocktail Tablets; Roche Diagnostics Corp., Indianapolis Ind.) for 15 min at 4° C. A membrane pellet was obtained by centrifuging the cell lysates at 12,000×g for 25 min. The membranes were resuspended in 5 mM HEPES with protease inhibitors and triturated with a 21G needle.
(§2) Fluorescence. Cells were plated into 384-well black/clear plates (BD Biosciences, Bedford Mass.) for binding experiments the following day. The media was aspirated. […] Media (20 μl) containing the indicated concentration of compound was then added to the wells. […] The binding reaction was allowed to proceed for 4 hours at 37° C. Subsequently the media was aspirated and the cells washed once with PBS.
In an effort to show binding to mouse NPC1L1, several related ezetimibe analogs were examined as possible alternatives to fluorescently-labeled (BODIPY) ezetimibe glucuronide (compound 1) in the binding assay. Compound 2, which is a fluorescently labeled synthetic precursor for fluorescently-labeled (BODIPY) ezetimibe glucuronide (compound 1; Burnett et al., Bioorganic and Medicinal Chemistry Letters 12:315-318 (2002)), was identified as a viable option for detection of mouse NPC1L1 binding. Compound 2 contains a methyl ester substitution for the carboxylic acid on the glucuronide portion of the molecule (compound structures shown in FIG. 4A).

[2] = target: T2, rat NPC1L1 (Rattus norvegicus, UniProt Q6T3U3, A349V/E317P/G318E/K324N/L297S); assay: Fluorescence NPC1L1 binding assay, HEK-293 cells, BODIPY-labeled compound 1; conditions: for Ki / Ki Rat NPC1L1: Table 3, Rat; for Ki: read-out: Ki Rat NPC1L1
T2 construct: expressed in transfected cells
Description: as §1, §2

[3] = target: T3, human NPC1L1 (Homo sapiens, UniProt Q9UHC9, T1073A); assay: as above; conditions: for Ki / Ki Human NPC1L1: Table 3, Human; for Ki: read-out: Ki Human NPC1L1
T3 construct: expressed in transfected cells
T3 sequence (Q9UHC9 22-1332 isoform Q9UHC9-2 T1046A): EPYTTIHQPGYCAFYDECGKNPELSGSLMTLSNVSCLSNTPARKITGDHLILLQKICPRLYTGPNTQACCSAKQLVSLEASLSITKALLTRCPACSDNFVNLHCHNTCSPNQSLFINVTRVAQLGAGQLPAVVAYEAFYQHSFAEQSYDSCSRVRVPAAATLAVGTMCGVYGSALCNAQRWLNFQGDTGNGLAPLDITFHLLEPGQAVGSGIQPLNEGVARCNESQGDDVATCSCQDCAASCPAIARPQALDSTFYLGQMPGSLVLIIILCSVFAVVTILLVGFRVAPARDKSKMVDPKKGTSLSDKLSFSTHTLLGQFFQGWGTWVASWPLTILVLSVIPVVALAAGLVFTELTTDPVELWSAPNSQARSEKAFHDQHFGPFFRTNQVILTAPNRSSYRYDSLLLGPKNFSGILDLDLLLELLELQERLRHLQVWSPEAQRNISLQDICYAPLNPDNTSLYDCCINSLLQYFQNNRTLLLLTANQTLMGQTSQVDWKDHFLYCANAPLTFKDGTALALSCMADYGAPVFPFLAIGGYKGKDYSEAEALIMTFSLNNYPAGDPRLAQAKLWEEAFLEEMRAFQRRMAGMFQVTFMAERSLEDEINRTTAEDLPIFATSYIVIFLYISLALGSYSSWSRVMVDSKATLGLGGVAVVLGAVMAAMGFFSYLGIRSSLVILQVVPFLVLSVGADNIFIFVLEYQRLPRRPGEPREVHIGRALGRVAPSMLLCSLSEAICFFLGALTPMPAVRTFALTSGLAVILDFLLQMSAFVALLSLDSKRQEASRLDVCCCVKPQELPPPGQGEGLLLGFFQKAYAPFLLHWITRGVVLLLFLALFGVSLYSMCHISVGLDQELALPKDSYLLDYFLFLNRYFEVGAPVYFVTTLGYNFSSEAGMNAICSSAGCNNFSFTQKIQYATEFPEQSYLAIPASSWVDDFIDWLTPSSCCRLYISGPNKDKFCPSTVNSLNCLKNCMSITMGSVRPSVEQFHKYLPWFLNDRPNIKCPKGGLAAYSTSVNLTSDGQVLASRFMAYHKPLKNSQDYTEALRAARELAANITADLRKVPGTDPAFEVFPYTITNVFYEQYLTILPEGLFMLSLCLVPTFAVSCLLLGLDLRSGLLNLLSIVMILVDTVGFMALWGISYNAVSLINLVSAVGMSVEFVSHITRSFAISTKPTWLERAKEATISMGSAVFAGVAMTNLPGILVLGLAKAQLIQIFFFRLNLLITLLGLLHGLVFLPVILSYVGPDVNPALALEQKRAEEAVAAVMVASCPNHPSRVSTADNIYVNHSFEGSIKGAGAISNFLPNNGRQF
Description: as §1, §2

[4] = target: canine NPC1L1 (Canis lupus familiaris, UniProt A0MJA4); assay: as above; conditions: for Ki / Ki Dog NPC1L1: Table 3, Dog; for Ki: read-out: Ki Dog NPC1L1
Description: as §1, §2

[5] = target: rabbit NPC1L1 (Oryctolagus cuniculus, UniProt A0MJA7); assay: as above; conditions: for Ki / Ki Rabbit NPC1L1: Table 3, Rabbit; for Ki: read-out: Ki Rabbit NPC1L1
Description: as §1, §2

[6] = target: hamster NPC1L1 (Mesocricetus auratus, UniProt A0MJA8); assay: as above; conditions: for Ki / Ki Hamster NPC1L1: Table 3, Hamster; for Ki: read-out: Ki Hamster NPC1L1
Description: as §1, §2

[7] = target: T4, monkey NPC1L1 (Macaca mulatta, UniProt A0MJA5); assay: Radioligand binding of [3H]-glucuronidated ezetimibe (compound 4) to cell membranes; design: species or system rhesus monkey
Description: (§3) Cell Culture and Membrane Preparation. […] Cells were maintained in DMEM supplemented with 10% FBS, 100 U/ml pen/strep, and 500 μg/ml geneticin at 37° C., 5% CO2. All cell culture reagents were obtained from Invitrogen Life Technologies, (Carlsbad, Calif.). Cell membranes were prepared by lysing cells in 5 mM HEPES with protease inhibitors (Complete™ Protease Inhibitor Cocktail Tablets; Roche Diagnostics Corp., Indianapolis Ind.) for 15 min at 4° C. A membrane pellet was obtained by centrifuging the cell lysates at 12,000×g for 25 min. […] Radioligand. […] Natl. Acad. Sci. […] Reactions were performed in binding buffer (5 mM HEPES, 5.5 mM glucose, 117 mM NaCl and 5.4 mM KCl, pH 7.4). Cell membranes (50 μg in 20 μl) were added to each well. […] Binding reactions were incubated for 2 hours at 37° C. Samples were transferred to Unifilter-96 GF/C plates (Perkin Elmer, Wellesley Mass.) and filtered using a Brandel harvester (Gaithersburg Md.). […] Liquid scintillant (50 μl; Microscint-20, Perkin Elmer, Wellesley Mass.) was added and the bound radioactivity was measured using a microplate scintillation counter.

[8] = target: T3, human NPC1L1; assay: as above
Description: as §3

[9] = target: T4, monkey NPC1L1; assay: Fluorescence NPC1L1 binding assay, HEK-293 cells, BODIPY-labeled compound 1; design: species or system rhesus monkey; conditions: for Ki / Ki Monkey NPC1L1: Table 3, Monkey; for Ki: read-out: Ki Monkey NPC1L1
Description: as §1, §2

[10] = system: plasma and liver cholesterol; assay: Percent cholesterol lowering in plasma and liver; type: in vivo; conditions: hamster
[11] = system: cholesterol; assay: In vivo cholesterol lowering activity
[12] = system: ^14C-cholesterol absorption; assay: Acute cholesterol absorption assay; type: in vivo; conditions: intraduodenal
Description: Acute cholesterol absorption assay. ^14C-cholesterol absorption was determined acutely in rats using conditions previously described (Van Heek et al., J. Pharmacol. Exp. Ther. 283: 157-163 (1997)). Compounds were dissolved in rat bile and delivered (1.0 ml) intraduodenally by bolus injection via an intestinal catheter, followed by 1.0 ml saline rinse (0.9%). Following a 30 min incubation, a cholesterol emulsion containing 3 mg cholesterol and 2 μCi ^14C-cholesterol (3 ml) was delivered to each rat as a bolus via intestinal catheter, followed by 1 ml saline rinse. Animals were sacrificed 90 min later and ^14C-cholesterol levels in plasma, liver, intestinal contents, and intestinal wall were determined.

[13] = system: NPC1L1 orthologs of multiple species; assay: Binding to NPC1L1 orthologs of multiple species; conditions: NPC1L1 orthologs of the species tested
Description: as §1, §2

For `Cc1cc(C)n2c1C=C1C=CC(CCC(=O)NCC#Cc3ccc(N4C(=O)[C@H](CC[C@H](O)c5ccc(F)cc5)[C@H]4c4ccc(O[C@@H]5O[C@H](C(=O)O)[C@@H](O)[C@H](O)[C@H]5O)cc4)cc3)=[N+]1[B-]2(F)F` [compound 1, BODIPY-labeled glucuronidated ezetimibe], the Kd [1] was “could not be detected”, the Kd ([2]; saturation binding, rat NPC1L1, 4 h) was 58 nM and the Kd ([3]; saturation binding, human NPC1L1, 4 h) was 61 nM. The Kd ([4]; saturation binding, canine NPC1L1, 4 h) was 52 nM, the Kd ([5]; saturation binding, rabbit NPC1L1, 4 h) was 151 nM and the Kd ([6]; saturation binding, hamster NPC1L1, 4 h) was 49 nM. For the same compound, the Ki [7] was 210 nM, the Ki [8] was 2500 nM and the Kd ([9]; saturation binding, monkey NPC1L1, 4 h) was 46 nM.
With `COC(=O)[C@H]1O[C@@H](Oc2ccc([C@@H]3[C@@H](CC[C@H](O)c4ccc(F)cc4)C(=O)N3c3ccc(C#CCNC(=O)CCC4=[N+]5C(=Cc6c(C)cc(C)n6[B-]5(F)F)C=C4)cc3)cc2)[C@H](O)[C@@H](O)[C@@H]1O` [compound 2] the Kd ([1]; read-out: Kd) was 118 nM, the Ki [7] was 70 nM and the “increase in affinity versus compound 1” value ([7]; monkey NPC1L1, methyl ester for carboxylic acid) was 3 fold. The Ki [8] was 120 nM.
`O=C1[C@H](CC[C@H](O)c2ccc(F)cc2)[C@@H](c2ccc(O[C@@H]3O[C@H](CO)[C@@H](O[C@@H]4O[C@H](CO)[C@@H](O)[C@H](O)[C@H]4O)[C@H](O)[C@H]3O)cc2)N1c1ccc(F)cc1` [compound 5] showed a Ki [1] of 7.7 µM, a Ki [2] of 542 nM and a Ki [3] of 2.15 µM. It also gave a Ki [4] of 1280 nM, a Ki [5] of 1.9 µM and a Ki [6] of 1200 nM. The “cholesterol lowering Liver” value [10] was 86%, the “cholesterol lowering Plasma” value [10] was 36% and the Ki [9] was 370 nM. The “in vivo cholesterol lowering activity” value [11] was “exhibiting in vivo cholesterol lowering activity”.
In the case of `O=C1[C@H](CC[C@H](O)c2ccc(F)cc2)[C@@H](c2ccc(O)cc2)N1c1ccc(I)cc1` [compound 6], the Ki [1] is reported as 16.4 µM, the Ki [2] is reported as 1460 nM and the Ki [3] is reported as 4.59 µM. It also gave a Ki [4] of 1430 nM, a Ki [5] of 5 µM and a Ki [6] of 2340 nM. For the same compound, the “cholesterol lowering Liver” value [10] was 63%, the “cholesterol lowering Plasma” value [10] was 22% and the Ki [9] was 1600 nM. For the same compound, the “in vivo cholesterol lowering activity” value [11] was “exhibiting in vivo cholesterol lowering activity”.
With `O=C(CS[C@H]1C(=O)N(c2ccc(F)cc2)[C@@H]1c1ccc(O)cc1)c1ccc(F)cc1` [compound 7] the ED50 ([12]; rat, read-out: rat ED50, inhibition of cholesterol absorption) was 0.036 mg/kg, the NPC1L1 binding activity [13] was “decreased” and the Ki [1] was 21.6 µM. It also gave a Ki [2] of 2100 nM, a Ki [4] of 2300 nM and a Ki [5] of 5.6 µM. For the same compound, the Ki [6] was 4280 nM, the “cholesterol lowering Liver” value [10] was 96% and the “cholesterol lowering Plasma” value [10] was 47%. For the same compound, the “in vivo cholesterol lowering activity” value [11] was “exhibiting in vivo cholesterol lowering activity”.
With `COc1ccc(N2C(=O)[C@H](CCCc3ccccc3)[C@H]2c2ccc(O[C@@H]3O[C@H](COCc4ccccc4)[C@@H](OCc4ccccc4)[C@H](OCc4ccccc4)[C@H]3OCc3ccccc3)cc2)cc1` [compound 8] the “rat ED50, inhibition of cholesterol absorption” value [12] was “In- active”, the NPC1L1 binding activity [13] was “total loss” and the “Ki Mouse NPC1L1” value [1] was “In- active”. The “Ki Rat NPC1L1” value [2] was “In- active”, the “Ki Human NPC1L1” value [3] was “In- active” and the “Ki Dog NPC1L1” value [4] was “In- active”. The “Ki Rabbit NPC1L1” value [5] was “In- active”, the “Ki Hamster NPC1L1” value [6] was “In- active” and the “Ki Monkey NPC1L1” value [9] was “In- active”. The “in vivo cholesterol lowering activity” value [11] was “no in vivo cholesterol lowering activity”.
`COc1ccc(N2C(=O)[C@H](CCCc3ccccc3)[C@H]2c2ccc(F)cc2)cc1` [compound 9] was tested, and the “rat ED50, inhibition of cholesterol absorption” value [12] was “In- active”, the NPC1L1 binding activity [13] was “total loss” and the “Ki Mouse NPC1L1” value [1] was “In- active”. For the same compound, the “Ki Rat NPC1L1” value [2] was “In- active”, the “Ki Human NPC1L1” value [3] was “In- active” and the “Ki Dog NPC1L1” value [4] was “In- active”. The “Ki Rabbit NPC1L1” value [5] was “In- active”, the “Ki Hamster NPC1L1” value [6] was “In- active” and the “cholesterol lowering Liver” value [10] was “In- active”. The “cholesterol lowering Plasma” value [10] was “In- active”, the “Ki Monkey NPC1L1” value [9] was “In- active” and the “in vivo cholesterol lowering activity” value [11] was “no in vivo cholesterol lowering activity”.
